Reference: ChEMBL document CHEMBL3352037, “Antifungal terpenoids from Hyalis argentea var. latisquama” (2014)
≈ marks a conversion by molar mass, not a printed value. Calls of active or inactive are those of the source. The rule behind the calls is not given here.

Legend:
Cryptococcus neoformans [1] = experiment: Antifungal activity against Cryptococcus neoformans ATCC 32264 assessed as microbial growth inhibition at 31.25 ug/mL after 48 hrs broth microdilution method; type: functional; settings: ATCC 32264, 48 h, read-out: GI
Candida albicans [2] = experiment: Antifungal activity against Candida albicans ATCC 10231 assessed as microbial growth inhibition at 62.5 ug/mL after 48 hrs broth microdilution method; type: functional; settings: ATCC 10231, 48 h, read-out: GI
Candida albicans [3] = experiment: Antifungal activity against Candida albicans ATCC 10231 assessed as microbial growth inhibition at 125 ug/mL after 48 hrs broth microdilution method; type: functional; settings: ATCC 10231, 48 h, read-out: GI
Candida albicans [4] = experiment: Antifungal activity against Candida albicans ATCC 10231 assessed as microbial growth inhibition at 15.6 ug/mL after 48 hrs broth microdilution method; type: functional; settings: ATCC 10231, 48 h, read-out: GI
Candida albicans [5] = experiment: Antifungal activity against Candida albicans ATCC 10231 by bioautography TLC plate assay based MTT method; type: functional, organism-based
Cryptococcus neoformans [6] = experiment: Antifungal activity against Cryptococcus neoformans ATCC 32264 assessed as microbial growth inhibition at 62.5 ug/mL after 48 hrs broth microdilution method; type: functional; settings: ATCC 32264, 48 h, read-out: GI
Cryptococcus neoformans [7] = experiment: Antifungal activity against Cryptococcus neoformans ATCC 32264 by bioautography TLC plate assay based MTT method; type: functional, organism-based
Cryptococcus neoformans [8] = experiment: Antifungal activity against Cryptococcus neoformans ATCC 32264 assessed as microbial growth inhibition at 15.6 ug/mL after 48 hrs broth microdilution method; type: functional; settings: ATCC 32264, 48 h, read-out: GI
Cryptococcus neoformans [9] = experiment: Antifungal activity against Cryptococcus neoformans ATCC 32264 assessed as microbial growth inhibition at => 125 ug/mL after 48 hrs broth microdilution method; type: functional
Candida albicans [10] = experiment: Antifungal activity against Candida albicans ATCC 10231 assessed as microbial growth inhibition at => 125 ug/mL after 48 hrs broth microdilution method; type: functional
Cryptococcus neoformans [11] = experiment: Antifungal activity against Cryptococcus neoformans ATCC 32264 assessed as microbial growth inhibition after 48 hrs broth microdilution method; type: functional
Candida albicans [12] = experiment: Antifungal activity against Candida albicans ATCC 10231 assessed as microbial growth inhibition after 48 hrs broth microdilution method; type: functional, organism-based
Cryptococcus neoformans [13] = experiment: Antifungal activity against Cryptococcus neoformans ATCC 32264 assessed as microbial growth inhibition at 50 to 300 ug/mL after 48 hrs broth microdilution method; type: functional, organism-based
Candida albicans [14] = experiment: Antifungal activity against Candida albicans ATCC 10231 assessed as microbial growth inhibition at 50 to 300 ug/mL after 48 hrs broth microdilution method; type: functional, organism-based
Candida albicans [15] = experiment: Antifungal activity against Candida albicans ATCC 10231 assessed as microbial growth inhibition at 250 ug/mL after 48 hrs broth microdilution method; type: functional, organism-based
Cryptococcus neoformans [16] = experiment: Antifungal activity against Cryptococcus neoformans ATCC 32264 assessed as microbial growth inhibition at 250 ug/mL after 48 hrs broth microdilution method; type: functional, organism-based

Structure (SMILES): C=C1[C@H]2C[C@H]2[C@]2(C)C=C3OC(=O)C(COC(C)=O)=C3C[C@@H]12
- inhibition of growth at 31.25 µg/mL (Cryptococcus neoformans [1]): 80%
- inhibition of growth at 62.5 µg/mL (Candida albicans [2]): 80%
- inhibition of growth at 125 µg/mL (Candida albicans [3]): 100%
- inhibition of growth at 15.6 µg/mL (Candida albicans [4]): 50%
- growth inhibition (GI) (Candida albicans [5]): Active
- inhibition of growth at 62.5 µg/mL (Cryptococcus neoformans [6]): 100%
- growth inhibition (GI) (Cryptococcus neoformans [7]): Active
- inhibition of growth at 15.6 µg/mL (Cryptococcus neoformans [8]): 50%

Structure (SMILES): C=C1[C@H]2C[C@H]2[C@]2(C)C=C3OC(=O)C(CO)=C3C[C@@H]12
- growth inhibition (GI) (Cryptococcus neoformans [9]): 50%
- growth inhibition (GI) (Candida albicans [10]): 50%
- growth inhibition (GI) (Candida albicans [5]): Active
- growth inhibition (GI) (Cryptococcus neoformans [7]): Active

Structure (SMILES): C=C1[C@@H]2[C@H]3OC(=O)C(=C)[C@@H]3CCC(=C)[C@@H]2C[C@@H]1O [ZALUZANIN C]
- MIC (Cryptococcus neoformans [11]; ATCC 32264, 48 h): 125 µg/mL (≈ 507 µM)
- growth inhibition (GI) (Candida albicans [5]): Active
- growth inhibition (GI) (Candida albicans [12]): Active

Structure (SMILES): C=C1[C@@H]2[C@H]3OC(=O)[C@@H](C)[C@@H]3CCC(=C)[C@@H]2C[C@@H]1O
- growth inhibition (GI) (Cryptococcus neoformans [11]): Active
- growth inhibition (GI) (Candida albicans [5]): Active
- growth inhibition (GI) (Cryptococcus neoformans [7]): Active
- growth inhibition (GI) (Candida albicans [12]): Active

Structure (SMILES): C=C1[C@H]2C[C@H]2[C@]2(C)C[C@@H]3OC(=O)C(CO)=C3C[C@@H]12
- growth inhibition (GI) (Cryptococcus neoformans [13]): inactive
- growth inhibition (GI) (Candida albicans [14]): inactive

Structure (SMILES): C=C1[C@H]2C[C@H]2[C@]2(C)[C@@H]3O[C@@]34OC(=O)C(COC(C)=O)=C4C[C@@H]12
- growth inhibition (GI) (Candida albicans [15]): inactive
- growth inhibition (GI) (Cryptococcus neoformans [16]): inactive
- growth inhibition (GI) (Candida albicans [5]): Active
- growth inhibition (GI) (Cryptococcus neoformans [7]): Active
